# Source: patent publication US5354758A, “Benzomorphans useful as NMDA receptor antagonists” (priority 1992, dated 1994)
# Like-named read-outs stand apart in the source and are kept apart here.
# Assays:
# [1] = target: T1, μ-site of opioid receptor (Rattus norvegicus, UniProt P33535); assay: In vitro binding, inhibition of [^3 H]DAGO binding to rat forebrain synaptic membranes; set-up: species or system Sprague-Dawley rat
# T1 construct: Semipurified synaptic membranes were prepared according to the method of Toll et al. (1984); from tissue; host or cells: adult male Sprague-Dawley rat forebrain membranes
# T1 sequence (P33535 whole entry): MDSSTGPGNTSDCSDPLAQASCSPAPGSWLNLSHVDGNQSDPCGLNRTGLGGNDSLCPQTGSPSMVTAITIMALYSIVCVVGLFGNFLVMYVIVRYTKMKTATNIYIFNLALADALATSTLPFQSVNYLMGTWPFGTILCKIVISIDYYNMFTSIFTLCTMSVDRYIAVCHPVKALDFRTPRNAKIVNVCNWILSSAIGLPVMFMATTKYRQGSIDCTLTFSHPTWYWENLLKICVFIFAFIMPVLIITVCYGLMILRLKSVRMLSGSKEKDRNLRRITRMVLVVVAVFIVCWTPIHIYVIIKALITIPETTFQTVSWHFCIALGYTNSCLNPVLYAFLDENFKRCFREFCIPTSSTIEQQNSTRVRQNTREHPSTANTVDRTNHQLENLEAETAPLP
# Description: (§1) As described below, the compounds of the invention were tested for their ability to inhibit binding of radiolabeled versions of these known ligands.
# Semipurified synaptic membranes were prepared according to the method of Toll et al. (1984). Adult male Sprague-Dawley rats were decapitated, and the forebrains were removed, weighed, and homogenized in 20 volumes of […] Tris-HCl, pH 7.7. The homogenate was centrifuged at 27,000×G for 15 minutes, and the resulting pellet was resuspended in buffer and recentrifuged twice. The washed membranes were resuspended in buffer to obtain a membrane concentration of 7.2 mg brain weight/mL; the final concentration in each assay tube was 12.2 mg/2 mL. […] The reaction was stopped by filtration through GF/B filters using a Brandel Cell Harvester. After washing twice with 5 mL of ice cold buffer, the filters were suspended in 5 mL scintillation fluid, and the radioactivity was counted after standing at room temperature overnight.
# NMDA receptor site [2] = assay: In vitro binding, inhibition of [^3 H]MK-801 binding to rat forebrain synaptic membranes; set-up: species or system Sprague-Dawley rat; details: 3 nM [^3 H]MK-801, 50 μM glycine and glutamate, 37° C., 2 hours, read-out: Ki [^3 H]MK801
# Description: as §1
# Semipurified synaptic membranes were prepared according to the method of Bristow et al. (1986) with minor modifications. Sprague-Dawley rats were decapitated and the forebrains were removed, weighed, and homogenized in 20 volumes of 0.32M sucrose. The homogenate was centrifuged at 121×G for 10 min. The resulting supernatant was recentrifuged at 27,000×G for 15 min. The pellet was resuspended in 20 volumes of distilled water and this suspension was centrifuged at 8,000×G for 10 min. Both the supernatant and the buffy coat layer, removed with 2 mL of 5 mM Tris-Cl (pH 7.8), were pooled and centrifuged at 27,000×G for 15 min. The supernatant was removed, the pellet was covered with a small amount of 5 mM Tris-Cl, and the sample was frozen for at least 18 hrs at -20° C. Membranes were then washed four times in 5 mM Tris-Cl and finally resuspended in 25 mL. This preparation was used for the binding assay immediately or frozen for subsequent use.
# The incubation was terminated by rapid filtration (Brandel Cell Harvester) over Whatman GF/B filters, which were then washed twice with 5 mL of 5 mM Tris-HCl. Radioactivity trapped on the filters was counted in 5 mL Scintiverse II at 50% efficiency in 7 mL minivials after standing at room temperature overnight.
# NMDA-induced lethality = assay: In vivo protection in the mouse against NMDA-induced lethality; set-up: species or system Swiss-Webster mouse; details: ip, 30 minutes before 200 mg/kg NMDA, eight mice per dose, Litchfield and Wilcoxin; for ED50: Mus musculus
# Description: (§2) According to the method described by Ferkany et al. (1988), the test compounds were administered ip to four male Swiss-Webster mice (26-34 g) each, following 30 minutes later, 200 mg/kg of NMDA was administered to the mice each. […] Those compounds that protected three or more of the mice at any of the doses were evaluated further by determining the ED50 values using three or more doses with the eight mice per dose. The ED50 was estimated by the method of Litchfield and Wilcoxin (1949). Water-soluble compounds were dissolved in distilled water and administered in a volume of 10 ml/kg. Water-insoluble compounds were suspended in an aqueous solution of 0.5% methyl cellulose and administered in a volume of 20 ml/kg.
# [3] = target: T2, σ-site of opioid receptor (Cavia porcellus, UniProt Q60492); assay: In vitro binding, inhibition of [^3 H]PPP binding to guinea pig brain homogenate; set-up: species or system Hartley guinea pig; details: for Ki: guinea pig brain homogenate, 0.6 nM [^3 H]PPP, 25° C., 1 hour
# T2 construct: Hartley guinea pigs were decapitated, and the brains were removed and homogenized; from tissue; host or cells: Hartley guinea pig brain homogenate (washed membranes)
# T2 sequence (Q60492 whole entry): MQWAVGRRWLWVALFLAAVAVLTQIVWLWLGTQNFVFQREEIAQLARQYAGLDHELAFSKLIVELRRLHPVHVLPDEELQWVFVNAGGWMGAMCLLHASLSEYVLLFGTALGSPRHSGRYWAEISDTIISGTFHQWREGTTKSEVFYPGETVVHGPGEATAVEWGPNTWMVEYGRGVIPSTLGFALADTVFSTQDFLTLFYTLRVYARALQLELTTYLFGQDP
# Description: as §1
# Hartley guinea pigs were decapitated, and the brains were removed and homogenized in 20 volumes of 50 mM Tris-HCl using a Polytron homogenizer. The homogenate was centrifuged at 27,000×G for 15 minutes, and the pellet was resuspended in 50 mM Tris-HCl. The centrifugation procedure was repeated twice. The pellet was diluted to approximately 8 mg wet tissue/assay. Various concentrations of the test compounds (100 μL) and [^3 H]PPP (100 μL, final concentration 0.6 nM) were incubated with 1.8 mL of the tissue homogenate at 25° C. for 1 hour. Unlabeled PPP (final concentration 10 μM) was added to some tubes to determine nonspecific binding. The reaction was stopped by filtration through GF/B filters using a Brandel Cell Harvester. After washing twice with […] of ice cold Tris-HCl, the filters were suspended in 5 mL of scintillation fluid, and the radioactivity was counted after standing at room temperature overnight.
# Table 1 summarizes the results of the in vitro binding studies using these three radioligands at the NMDA receptor site, μ-site and σ-site of opioid receptor, respectively.
# [4] = tested on: σ-site of opioid receptor; details: shown previously; cited from earlier work
# NMDA receptor site [5] = details: shown previously; cited from earlier work
# mice = assay: Lethality of NMDA in mice; assay type: in vivo, Swiss-Webster mouse; details: NMDA at 200 mg/kg
# Description: as §2
# [6] = Ki [^3 H]DAGO, 2 nM [^3 H]DAGO, 25° C., 1 hour
SMILES,"Ki [1, 6] [µM]",Ki (NMDA receptor site [2]) [µM],Mouse ED50 (NMDA-induced lethality) [mg/kg],Ki ([3]; read-out: Ki [^3 H]PPP) [µM],ED50 (NMDA-induced lethality) [mg/kg],also measured
"CC(C1CC1)N1CC[C@]2(C)c3ccccc3C[C@H]1[C@H]2C (single isomer, unassigned; (+)) [(+)-IIId-7 (Isomer B)]",6.58,1.99,13.7,0.071,,
"C#CC(C)N1CC[C@]2(C)c3ccccc3C[C@H]1[C@H]2C (single isomer, unassigned; (+)) [(+)-BZ-6 (Isomer B)]",9,2.55,18.8,1.1,,
"C=CC(C1CC1)N1CC[C@]2(C)c3ccccc3C[C@H]1[C@H]2C (single isomer, unassigned; (+)) [(+)-BZ-4]",20.2,11.5,,0.13,24.1,
"CC(C1CC1)N1CC[C@]2(C)c3cc(F)ccc3C[C@H]1[C@H]2C (single isomer, unassigned; (+)) [(+)-BZ-14 (Isomer B)]",,3.53,13,0.062,,"Ki ([1]; read-out: Ki [^3 H]DAGO, 2 nM [^3 H]DAGO, 25° C., 1 hour): 5.01 µM"
"CC(C1CO1)N1CC[C@]2(C)c3ccccc3C[C@H]1[C@H]2C (single isomer, unassigned; (+)) [(+)-BZ-5]",5.8,11.6,,0.011,,
"C[C@@H]1[C@@H]2Cc3ccccc3[C@@]1(C)CCN2N(C)C [(+)-BZ-18, (1S,5S,9S)-(+)-5,9-dimethyl-2-dimethylamino-6,7-benzomorphan]",,4.54,,0.81,14.4,
"CC(C)N1CC[C@]2(C)c3ccccc3C[C@H]1[C@H]2C [(+)-IIId-6, (1S,5S,9S)-(+)-2-Isopropyl-5,9-dimethyl-6,7-benzomorphan]",18.9,3.51,,0.56,17.3,
"CC(C1CO1)N1CC[C@]2(C)c3ccccc3C[C@H]1[C@H]2C (mixture of isomers) [(+)-BZ-5 (Mixture of Isomer B and C), (1S,5S,9S)-(+)-5,9-Dimethyl-2-(1-methyl-2,3-epoxypropyl)-6,7-benzomorphan]",12.4,,,0.042,32.5,
"CCCN1CCCC(c2cccc(O)c2)C1 (stereo not shown) [PPP, reference compound]",,,,,,Kd [3]: 0.02 µM; high-affinity ligand at the σ site of the opioid receptor [4]: high-affinity
"CC(C1CCC1)N1CC[C@]2(C)c3ccccc3C[C@H]1[C@H]2C (single isomer, unassigned; (+)) [(+)-BZ-3 (Isomer B)]",13.5,3.61,> 60,0.0081,,
"CC(C1CCC1)N1CC[C@]2(C)c3ccccc3C[C@H]1[C@H]2C (single isomer, unassigned; (+)) [(+)-BZ-3 (Isomer A)]",11.8,0.22,16.4,0.0012,,
"CN1CC[C@@]23CCCC[C@@H]2[C@@H]1Cc1ccc(O)cc13 [Dextrorphan, reference compound]",2.2,,34.6,,,
"CC(C)N1CC[C@]2(C)c3cc(F)ccc3C[C@H]1[C@H]2C [(+)-BZ-13, (1S,5S,9S)-(+)-2'-Fluoro-2-isopropyl-5,9-dimethyl-6,7-benzomorphan]",20.2,4.15,,0.26,9,
"C[C@@H]1[C@@H]2Cc3ccccc3[C@@]1(C)CCN2C(C)(C)C [(+)-BZ-15A, (1S,5S,9S)-(+)-2-Tert-butyl-5,9-dimethyl-6,7-benzomorphan]",7.29,2.59,,0.98,10.7,
"C[C@@H]1[C@@H]2Cc3ccccc3[C@@]1(C)CCN2C(C1CC1)C1CC1 [(+)-BZ-1, (1S,5S,9S)-(+)-2-Dicyclopropylmethyl-5,9-dimethyl-6,7-benzomorphan]",11.5,14,,0.16,33.1,
"CC(C1CC1)N1CC[C@]2(C)c3ccccc3C[C@H]1[C@H]2C (single isomer, unassigned; (+)) [(+)-IIId-7 (Isomer A)]",3.05,0.75,6.8,0.02,,
"C=CC(C)N1CC[C@]2(C)c3ccccc3C[C@H]1[C@H]2C (single isomer, unassigned; (+)) [(+)-BZ-2]",9.58,1.32,,0.1,22.1,
"COc1ccc2c(c1)[C@]13CCCC[C@@H]1[C@H](C2)N(C)CC3 [Dextromethorphan, reference compound]",1.74,,,,39,Ki ([3]; Ki [^3 H]PPP): 0.15 µM
"C#CC(C)N1CC[C@]2(C)c3ccccc3C[C@H]1[C@H]2C (single isomer, unassigned; (+)) [(+)-BZ-6 (Isomer A)]",12.3,16.6,> 50,19.2,,
"C[C@@H]1[C@@H]2Cc3ccccc3[C@@]1(C)CCN2O [(+)-BZ-17A, (1S,5S,9S)-(+)-2-hydroxy-5,9-dimethyl-6,7-benzomorphan]",21.9,43,,25.9,21.6,
C[C@]12N[C@H](Cc3ccccc31)c1ccccc12 [MK-801],,,,,,high-affinity ligand at the NMDA receptor site (NMDA receptor site [5]): high-affinity
"CC(C)N1CC[C@]2(C)c3cc(Cl)ccc3C[C@H]1[C@H]2C [(+)-BZ-26, (1S,5S,9S)-(+)-2'-Chloro-2-isopropyl-5,9-dimethyl-6,7-benzomorphan]",11.8,12.8,,0.074,12.2,
"CC(C1CO1)N1CC[C@]2(C)c3ccccc3C[C@H]1[C@H]2C (single isomer, unassigned; (+)) [(+)-BZ-5 (Isomer A)]",9.74,29.2,,0.04,,
"CN[C@H](CC(=O)O)C(=O)O [NMDA, N-methyl-D-aspartate]",,,,,,mice died (mice): approximately 90%
"CC(C1CC1)N1CC[C@]2(C)c3cc(F)ccc3C[C@H]1[C@H]2C (single isomer, unassigned; (+)) [(+)-BZ-14 (Isomer A)]",0.72,0.85,6.1,0.014,,
